Assay results taken from patent US20240335439A1, “USE OF AND METHOD FOR TELAPREVIR IN PREPARATION OF DRUG FOR TREATING AN ISCHEMIA/REPERFUSION INJURY AND CYTOPROTECTIVE DRUG” (THE THIRD XIANGYA HOSPITAL OF CENTRAL SOUTH UNIVERSITY, priority 2021, published 2024).

What was measured:
[1] = system: Alzheimer's disease mouse models; test: Alzheimer's disease mouse model (Aβ1-42 into hippocampus), Morris water maze experiment; format: in vivo, ICR mice; conditions: telaprevir 40 mg/kg intramuscular daily for 17 days, #P<0.05 vs AD+vehicle
Method: (§1) Experimental animals: 7-week-old healthy male ICR mice weighing 25-30 g. The experimental animals were raised for one week in an environment with a temperature of 25° C., a relative humidity of 60%, free drinking water, and timed and quantified feeding, and then administered according to the requirements of each experimental group.
Building of an Alzheimer's disease mouse model and drug treatment: Aβ1-42 was purchased from MCE Reagent Company, dissolved in DMSO, diluted with physiological saline to 2 μg/μL, and incubated in an incubator at 37° C. for 7 days to convert the Aβ1-42 into an aggregated state. […]
A learning and memory ability and cognitive function of mice were detected by a Morris water maze experiment and a new/old object recognition experiment.
According to the requirements of the water maze experiment, a Morris water maze was divided into four quadrants, a platform having a diameter of 12 cm and a height of 35 cm was placed in one of the quadrants, water was added to submerge the platform 1-2 cm, and the pool water was dyed black with carbon ink. After the positioning navigation experiment lasted for 5 days, the platform was removed for a spatial probe experiment, and the time for the mice to reach the original platform position (namely, incubation period) and the number of times they crossed the platform were recorded.

[2] = system: myocardial ischemia/reperfusion injury mouse models; test: Myocardial ischemia/reperfusion injury mouse model (LAD ligation 1 h, reperfusion 24 h); format: in vivo, C57BL/6J mice; conditions: telaprevir 60 mg/kg after 30 minutes of ischemia, 24 h reperfusion
Method: as §1, with “7-week-old” for “7-week-old healthy”, “C57BL/6J mice.” for “ICR mice weighing 25-30 g.”
Method for building a myocardial ischemia/reperfusion mouse model: After an 8-week-old male C57BL/6J mouse was anesthetized by intraperitoneal injection with 0.3% pentobarbital sodium (20 mL/kg), a trachea cannula was inserted from the mouth and secured with a pressure-sensitive adhesive. […] The chest was opened, left anterior descending (LAD) branches were ligated with 8-0 sutures, myocardial infarction can be determined when the cardiac apex turned white, and the ligation was maintained for 1 hour. […] After staining, the staining solution was removed, the heart slices were washed with PBS once, immobilized with 4% paraformaldehyde for 24 hours, and then taken out, the staining situation was observed, photos were taken, and an ischemic area and an infarct area were measured by ImageJ software. […]
Blood and myocardial tissues were collected and relevant indicators were measured: myocardial infarct area in mice was measured and serum creatine kinase activity (CK activity) was detected. […]

CCC[C@H](NC(=O)[C@@H]1[C@H]2CCC[C@H]2CN1C(=O)[C@@H](NC(=O)[C@@H](NC(=O)c1cnccn1)C1CCCCC1)C(C)(C)C)C(=O)C(=O)NC1CC1 [telaprevir]
time to find the original platform position (incubation period), Morris water maze ([1]; FIG. 6A): significant decrease
number of times they crossed the platform, Morris water maze ([1]; FIG. 6B): significant increase
serum creatine kinase activity ([2]; ##P<0.01 vs I/R, FIG. 1B): significantly reduce
infarct area of myocardial tissues in mice (TTC staining, AOI/AOR) ([2]; vs I/R, FIG. 1A): significantly reduce
